Experimental findings from ChEMBL document CHEMBL1201862, “PubChem BioAssay data set” (2004) are described below.

Some test systems named below: OVCAR-8; KM12; SNB-19; SK-MEL-2; SW-620; NCI-H522; U-251; NCI/ADR-RES; COLO 205; MDA-N; LOX IMVI; HL-60; SN12C; HOP-92; CAKI-1; UO-31; CCRF-CEM; BT-549; MOLT-4; MDA-MB-231.
Common to all, as to assay: growth of human tumour cells (NCI), 48 h

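Briefly, cells in 96-well plates were exposed to five compound concentrations for 48 h, and endpoints were estimated by linear interpolation. GI50 is the concentration that inhibits growth by half.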 Calls of active or inactive are those of the source. Rule as the data show it: active = GI50 up to about 1.1 µM and inactive = higher. Bounds are passed on as bounds.

For the compound `CC(C)(C)C=C=C(C(C)(C)C)P(=O)(O)O`, the GI50 in the assay with OVCAR-8, in the assay with KM12, in the assay on SNB-19, with SK-MEL-2, with SW-620 and in the assay on NCI-H522 was > 100 µM (inactive) in each case. In addition, the GI50 with U-251, in the assay with NCI/ADR-RES, in the assay with COLO 205, with MDA-N, in the assay with LOX IMVI and with HL-60 was > 100 µM (inactive) in each case. For the same compound, the GI50 in the assay on SN12C, with HOP-92 and in the assay on CAKI-1 was > 100 µM (inactive) throughout.

With `O=c1c2cc(I)ccc2nc(-c2cccs2)n1/N=C/c1ccccc1`, the GI50 is > 100 µM (inactive) in the assay on OVCAR-8; > 100 µM (inactive) with UO-31; > 100 µM (inactive) in the assay with KM12; > 100 µM (inactive) in the assay with SNB-19; 0.536 µM (active) with SK-MEL-2; > 100 µM (inactive) in the assay on SW-620. The GI50 in the assay on NCI-H522, with U-251, in the assay with NCI/ADR-RES, with COLO 205, in the assay with CCRF-CEM and in the assay with BT-549 was > 100 µM (inactive) each time. Moreover, the GI50 with LOX IMVI, in the assay on HL-60, with SN12C, with HOP-92 and in the assay on CAKI-1 was > 100 µM (inactive) each time.

For `CCOC(CNCCC(=O)OC)OCC`, the GI50 in the assay on OVCAR-8, with MOLT-4, in the assay on UO-31, in the assay with KM12, in the assay with SNB-19 and with SK-MEL-2 was > 10 µM (inactive) throughout. The GI50 with SW-620, in the assay with NCI-H522, in the assay on U-251, with NCI/ADR-RES, in the assay with COLO 205 and in the assay on CCRF-CEM was > 10 µM (inactive) in each case. Also, the GI50 with MDA-N, with MDA-MB-231, in the assay on LOX IMVI, in the assay on HL-60, in the assay on SN12C and in the assay on HOP-92 was > 10 µM (inactive) each time. In the assay with CAKI-1, the GI50 is > 10 µM (inactive).

As for `CCOC(=O)c1c(NC(=S)Nc2ccc(C)cc2)sc2c1CCN(C)C2`, the GI50 with OVCAR-8 was > 100 µM (inactive); in the assay with MOLT-4, > 100 µM (inactive); in the assay with UO-31, > 100 µM (inactive); with KM12, 81.7 µM (inactive); in the assay on SNB-19, > 100 µM (inactive); in the assay with SK-MEL-2, > 100 µM (inactive). Further, the GI50 in the assay on NCI/ADR-RES, in the assay with COLO 205, in the assay with CCRF-CEM, in the assay with MDA-N, in the assay on BT-549 and with MDA-MB-231 was > 100 µM (inactive) in each case. For the same compound, the GI50 with HL-60 was 94.6 µM (inactive); in the assay with SN12C, > 100 µM (inactive); in the assay on CAKI-1 it was > 100 µM (inactive).

For the compound `c1csc(-c2cc(-c3ccsc3)c(-c3ccsc3)s2)c1`, the GI50 in the assay on OVCAR-8, in the assay on MOLT-4, in the assay with UO-31, in the assay on KM12, in the assay on SNB-19 and with SW-620 was > 100 µM (inactive) throughout. Further, the GI50 in the assay with NCI-H522 was > 100 µM (inactive); in the assay on U-251, > 100 µM (inactive); in the assay with NCI/ADR-RES, > 100 µM (inactive); with COLO 205 it was 89.7 µM (inactive); with CCRF-CEM it was > 100 µM (inactive); in the assay with MDA-N, > 100 µM (inactive). The GI50 in the assay with BT-549, with MDA-MB-231, in the assay with SN12C, in the assay on HOP-92 and in the assay with CAKI-1 was > 100 µM (inactive) throughout.

As for `O=C1c2c(ccc3c2CCCC3)CC1Cc1ccc2c(c1)CCCC2` (stereo unspecified), the GI50 in the assay on OVCAR-8 is 88.3 µM (inactive); with MOLT-4, 35 µM (inactive); in the assay with UO-31, > 100 µM (inactive); in the assay with KM12, 59.2 µM (inactive); in the assay on SNB-19 it was > 100 µM (inactive); with SK-MEL-2, 47.3 µM (inactive). The GI50 was 61.7 µM (inactive) in the assay on SW-620; 67 µM (inactive) with U-251; 30.8 µM (inactive) in the assay on COLO 205; 21.3 µM (inactive) in the assay on CCRF-CEM; 39 µM (inactive) with MDA-N; > 100 µM (inactive) in the assay on BT-549. Further, the GI50 is 37.2 µM (inactive) in the assay on MDA-MB-231; 63.8 µM (inactive) in the assay with LOX IMVI; 5.46 µM (inactive) with HL-60; 45 µM (inactive) in the assay with SN12C; 22 µM (inactive) with HOP-92.

Regarding `CC(=O)c1cc2ccccc2[n+]([O-])c1N`, the GI50 in the assay on OVCAR-8, in the assay with MOLT-4, in the assay with KM12, in the assay with SK-MEL-2, with NCI-H522 and in the assay on U-251 was > 100 µM (inactive) throughout. The GI50 with NCI/ADR-RES, with COLO 205, in the assay with CCRF-CEM, with MDA-N, in the assay with MDA-MB-231 and in the assay with LOX IMVI was > 100 µM (inactive) in each case. The GI50 with HL-60, with SN12C, in the assay on HOP-92 and with CAKI-1 was > 100 µM (inactive) in each case.

In the case of `COc1ccc(C23OCC(Cc4cc(OC)c(OC)cc42)C3COC(C)=O)cc1OC` (stereo unspecified), the GI50 with MOLT-4, with UO-31, in the assay on KM12, in the assay with SNB-19, with SK-MEL-2 and with SW-620 was > 100 µM (inactive) each time. Besides, the GI50 was > 100 µM (inactive) in the assay with NCI-H522; > 100 µM (inactive) in the assay with U-251; 25.5 µM (inactive) in the assay with NCI/ADR-RES; > 100 µM (inactive) in the assay on COLO 205; > 100 µM (inactive) with BT-549; > 100 µM (inactive) with MDA-MB-231. Besides, the GI50 with LOX IMVI, with HL-60, in the assay on HOP-92 and in the assay on CAKI-1 was > 100 µM (inactive) throughout.

`Brc1ccc(C2(N3CCCCC3)CCCCC2)s1`: the GI50 was 16.4 µM (inactive) in the assay on MOLT-4; 30.8 µM (inactive) in the assay on UO-31; 28.4 µM (inactive) in the assay on KM12; 73.1 µM (inactive) in the assay with SNB-19; 19 µM (inactive) with SK-MEL-2; 31.8 µM (inactive) with SW-620. The GI50 was 27.3 µM (inactive) with NCI-H522; 33.1 µM (inactive) in the assay with U-251; 18.3 µM (inactive) in the assay with CCRF-CEM; 79.8 µM (inactive) in the assay on MDA-N; 30.5 µM (inactive) with BT-549; 32 µM (inactive) in the assay with MDA-MB-231. The GI50 was 11.7 µM (inactive) with LOX IMVI; 19.4 µM (inactive) in the assay with HL-60; > 100 µM (inactive) in the assay with SN12C; 19.7 µM (inactive) in the assay with HOP-92; > 100 µM (inactive) with CAKI-1.

As to `CCOC1=C/C(=N\Nc2ccc([N+](=O)[O-])cc2)CCC1`, the GI50 in the assay with OVCAR-8 is 16.4 µM (inactive); with MOLT-4, 4.83 µM (inactive); in the assay on UO-31, 12.1 µM (inactive); in the assay with KM12, 14.3 µM (inactive); in the assay with SNB-19, 34.7 µM (inactive); with SK-MEL-2, 21.5 µM (inactive). Further, the GI50 with SW-620 is 14.8 µM (inactive); with NCI-H522, 4.45 µM (inactive); with U-251 it was 19.3 µM (inactive); in the assay with NCI/ADR-RES, 30.1 µM (inactive); with COLO 205, 15.3 µM (inactive); with BT-549 it was 13.6 µM (inactive). Besides, the GI50 with MDA-MB-231 is 27.9 µM (inactive); with LOX IMVI it was 8.77 µM (inactive); in the assay on HL-60, 13.6 µM (inactive); in the assay on SN12C, 29.9 µM (inactive); in the assay with HOP-92, 39.8 µM (inactive); in the assay with CAKI-1 it was 28.8 µM (inactive).

In the case of `CN/N=C(/Cc1occc(=O)c1O)C(=O)Nc1ccccc1C`, the GI50 with OVCAR-8, in the assay on MOLT-4, in the assay on UO-31, with KM12, in the assay with SNB-19 and in the assay on SK-MEL-2 was > 100 µM (inactive) each time. The GI50 in the assay on SW-620, in the assay on NCI-H522, in the assay with U-251, in the assay on COLO 205, in the assay with CCRF-CEM and in the assay with LOX IMVI was > 100 µM (inactive) each time. Moreover, the GI50 in the assay with HL-60 is > 100 µM (inactive); in the assay on SN12C, > 100 µM (inactive); in the assay on HOP-92 it was 20.4 µM (inactive); in the assay on CAKI-1 it was > 100 µM (inactive).

Turning to `Cc1ccc([S+]([O-])C[C@@]2(C(F)F)NC(=O)NC2=O)cc1` (stereo partly specified), the GI50 in the assay on OVCAR-8, in the assay with MOLT-4, in the assay on UO-31, in the assay on KM12, in the assay on SNB-19 and with SK-MEL-2 was > 100 µM (inactive) each time. The GI50 with SW-620, with NCI-H522, in the assay with U-251, in the assay on NCI/ADR-RES, with COLO 205 and with CCRF-CEM was > 100 µM (inactive) in each case. Also, the GI50 in the assay on BT-549, in the assay with MDA-MB-231, with LOX IMVI, in the assay with HL-60, in the assay on HOP-92 and in the assay with CAKI-1 was > 100 µM (inactive) in each case.
